Measured values from patent US8524746B2, “Dosage regimen for COMT inhibitors” (Bial-Portela & Ca., S.A., priority 2007, dated 2013).
Like-named read-outs stand apart in the source and are kept apart here.

Experiments:
[1] = 3 mg/kg oral
[2] = Brain levels of L-DOPA and its derivatives in rats treated with L-DOPA plus benserazide; assay type: in vivo, rat; details: 3 mg/kg oral
liver COMT = details: rat, 3 mg/kg oral; for inhibition of liver COMT activity nine hours after administration: 9 h
Experimental: Livers from 60 day old male Wistar rats weighing 240-260 g (Harlan-Interfauna Ibérica, Barcelona, Spain), kept two per cage under controlled environmental conditions (12 h light/dark cycle and room temperature 24° C.) were used in all experiments. After decapitation, the organs were immediately removed and homogenised in 5 mM phosphate buffer of pH 7.8. COMT activity was evaluated by the ability to methylate adrenaline to metanephrine. […] The preincubation and incubation were carried out at 37° C. under conditions of light protection with continuous shaking and without oxygenation.
In experiments designed to evaluate the oral bioavailability of test substances, compounds were given by gastric tube to overnight fasted rats. Thereafter, at defined intervals, animals were killed by decapitation and livers removed and used to determine COMT activity as described above. At the end of the incubation period (5 min) the tubes were transferred to ice and the reaction was stopped by the addition of 200 μl of 2 M perchloric acid. The samples were then centrifuged (200×g, 4 min, 4° C.), and 500 μl aliquots of the supernatant, filtered on 0.22 μm pore size Spin-X filter tubes (Costar) were used for the assay of metanephrine. The assay of metanephrine was carried out by means of high pressure liquid chromatography with electrochemical detection. The lower limits for detection of metanephrine ranged from 350 to 500 fmol (0.5 to 1.0 μmol/mg protein/h).

[3] = L-DOPA 12 mg/kg plus benserazide 3 mg/kg, all pre-treatment times (1, 7 and 24 h)
[4] = L-DOPA plus benserazide, inhibitor given 24 h in advance

| Compound | circulating (plasma) 3-O-methyl-L-DOPA [1, 3] | plasma L-DOPA [1, 3] | brain 3-O-methyl-L-DOPA [2, 3] | brain DOPAC [2, 3] | brain L-DOPA [2, 3] | brain dopamine [2, 3] | time to maximal inhibitory effect on liver COMT (liver COMT) [min] | inhibition of liver COMT activity nine hours after administration (liver COMT) | inhibition of liver COMT activity 24 hours after administration (liver COMT) | plasma 3-O-methyl-L-DOPA [1, 4] | plasma L-DOPA [1, 4] | brain L-DOPA ([2]; L-DOPA plus benserazide, 2 and 7 h after administration) | brain 3-O-methyl-L-DOPA [2, 4] | brain DOPAC [2, 4] | brain L-DOPA [2, 4] | brain dopamine [2, 4] |
| --- | --- | --- | --- | --- | --- | --- | --- | --- | --- | --- | --- | --- | --- | --- | --- | --- |
| Cc1c(Cl)c(C)[n+]([O-])c(Cl)c1-c1noc(-c2cc(O)c(O)c([N+](=O)[O-])c2)n1 [Compound A, 5-[3-(2,5-dichloro-4,6-dimethyl-1-oxy-pyridin-3-yl)-[1,2,4]oxadiazol-5-yl]-3-nitrobenzene-1,2-diol] | marked decrease | significant increases | marked decrease | significant increases | significant increases | significant increases | ≤ 60 | 90 % of control levels | 60 % of controls levels |  |  |  |  |  |  |  |
| Cc1ccc(C(=O)c2cc(O)c(O)c([N+](=O)[O-])c2)cc1 [tolcapone, 3,4-dihydroxy-4′-methyl-5-nitrobenzophenone] |  |  |  |  |  |  | ≤ 30 | minimal inhibitory effects | almost devoid of COMT inhibitory properties | not affected | not affected | Significant changes | not affected | not affected | not affected | not affected |
